The source of these data is paper PMC12153055 (Organometallics, 2025).

Data set [1] addresses 20S proteasome PGPH (caspase-like) activity (Homo sapiens, UniProt P28072). As to the kind of experiment: Isolated 20S proteasome, peptidyl glutamyl peptide hydrolase (caspase-like) activity (Z-Leu-Leu-Glu-AMC). The class given is biochemical. Conditions: 0–100 μM, 1 h, 37 °C, pH 8.0. On the procedure:
(§1) Proteasome inhibition by the compounds was evaluated with respect to three major activities of the 20S proteasome, namely, chymotrypsin-like, trypsin-like, and caspase-like activities.
(§2) The effect of the compounds on the activity of the isolated 20S proteasome was tested using specific synthetic fluorogenic peptide substrates (Suc-Leu-Leu-Val-Tyr-AMC, Z-Leu-Ser-Thr-Arg-AMC, and Z-Leu-Leu-Glu-AMC for chymotrypsin-like, trypsin-like, and peptidyl glutamyl peptide hydrolase activity, respectively) as reported elsewhere. Briefly, individual mixtures consisting of the compounds (0–100 μM), 1 μg of isolated 20S proteasome, the specific substrate, and 50 mM Tris–HCl pH 8.0 up to a final volume of 100 μL were incubated at 37 °C, and after 1 h, the fluorescence measurements of the hydrolyzed AMC were recorded on a SpectraMax Gemini XPS microplate reader (λexc = 365 nm, λem = 449 nm).

The target of data set [2] is 20S proteasome trypsin-like activity (Homo sapiens, UniProt Q99436). The experiment in a line: Isolated 20S proteasome, trypsin-like activity (Z-Leu-Ser-Thr-Arg-AMC). Conditions: 0–100 μM, 1 h, 37 °C, pH 8.0. Format: biochemical. Here is the method: as §1, §2
Data set [3] concerns A2780 human ovarian carcinoma cells. As to the kind of experiment: MTT cytotoxicity assay, A2780 cells. The class given is cell-based. Here is the method: (§3) The stability of [1]-Cl-[4]-Cl was evaluated in aqueous phosphate-buffered solution (PBS, pH 7.4) using UV–visible spectroscopy. […] The cytotoxicity of the compounds was measured according to a standard MTT assay against human breast cancer (MCF7 and MCF7CR) and ovarian cancer (A2780 and A2780cis) cell lines, and also nontumorigenic MCF10A and human embryonic kidney HEK293T cells (Table ).
(§4) All cell lines were grown in a humidified 5% CO2 environment at 37 °C in dedicated media. Growth media comprised minimum essential medium (MEM) supplemented with 10% FBS, 1% sodium pyruvate, antibiotics, and antimycotic agents for MCF7. MCF10A cells were cultured in a DMEM/F12 Ham’s mixture supplemented with 5% equine serum, 20 ng/mL EGF, 10 μg/mL insulin, […], antibiotics, and antimycotics. MCF7-CR cells were grown in minimum essential medium (MEM), 10% FBS supplemented with 0.1 mg/mL cisplatin, sodium pyruvate, antibiotics, and antimycotics. A2780 and A2780cis cells were cultured in RPMI 1640 GlutaMAX, and HEK293T cells were cultured in DMEM GlutaMAX medium containing 10% heat-inactivated FBS and antibiotics. The effect exerted on cell viability by the compounds was determined using the 3-(4,5-dimethylthiazol-2-yl)-2,5-diphenyltetrazolium bromide (MTT) assay. After individual treatments with 0–100 μM of the compound for 72 h, MTT was added to the culture media at a final concentration of 0.5 mg/mL and incubated for 2 h at 37 °C. Cisplatin was used as a positive control. The medium was replaced with 100 μL of DMSO, and after 10 min, the optical density was recorded at 550 nm on a microplate reader. At least six cultures were used for each data point. Chemicals (Merck-Sigma, Milan, Italy) and plasticware (Corning, Milan, Italy) were cell culture grade.
Background: Formazan colour is commonly taken as a measure of viable cells.

For the next data set, the system named is dsDNA oligomer. As to the kind of experiment: SPR biosensor binding to surface-anchored dsDNA oligomer. Conditions: surface-blocked DNA oligomer. Here is the method:
The DNA binding ability of curcuminoid ligands and their complexes was evaluated by using a Surface plasmon resonance (SPR) biosensor. The monoexponential nature of binding kinetics for all the compounds is consistent with the presence of a single high-affinity site on DNA (Figure ).
The binding kinetics/affinities of the molecules of interest for DNA were studied according to a previously described biosensor-based method. Briefly, streptavidin was anchored to a carboxylate surface via EDC/NHS chemistry, and 5′-biotinylated dsDNA oligomer (sequence: 3′-[…]-5′) was coupled to surface-blocked streptavidin. Compounds were independently added to the DNA-coated surface at different concentrations, each time following binding kinetics up to equilibrium. PBS buffer was used for both the dissociation and the regeneration steps. Experimental data were fitted to both mono- and biexponential models, and the validity of each model was assessed by a standard F-test procedure. The binding sites on DNA were mapped according to independent competitive binding assays individually using a minor groove binder (GelRed) and a major groove binder (methyl green), respectively. Briefly, GelRed displacement was monitored by comparing the emission spectra of solutions containing different concentrations of curcuminoid-like ligands/complexes (0–100 μM), 20 μM DNA, and GelRed (10 μM) in 10 mM phosphate buffer, pH 7.4. Similarly, methyl green displacement assay was performed by monitoring the absorbance at 630 nm upon addition of candidate competitors (0–100 μM), 100 μM DNA, and methyl green (10 μM) in 50 mM Tris–HCl buffer and 7.5 mM MgSO4, pH 7.5.
Background: In SPR one partner is held on a chip, and binding of the other changes the refractive index at the surface.

Data set [4] has as its system MCF7-CR cisplatin-resistant breast cancer cells. As to the kind of experiment: MTT cytotoxicity assay, MCF7CR cells. The settings on record: 72 h exposure, mean ± SD of three experiments. The class given is cell-based, human. On the procedure: as §3, §4
Data set [5] deals with MCF10A nontumorigenic cells. As to the kind of experiment: MTT cytotoxicity assay, MCF10A cells. The class given is cell-based, human. The settings on record: 72 h exposure, mean ± SD of three experiments. On the procedure:
as §3, §4

The subject of the next data set is p62. As to the kind of experiment: Western blot quantification of p62 in MCF7 cells. Format: cell-based, human. The settings on record: 10 μM, 24 h. Here is the method: Since no significant correlation emerged among cytotoxicity, DNA binding affinity, and proteasome inhibition, the effects of the treatment on the expression levels of p62 were evaluated. p62 is a multifunctional binding protein that is involved in signaling pathways of many cellular activities, including autophagy, whose abnormal expression is associated with malignancies, breast cancer in particular. […] This effect was more evident for the free ligand, in agreement with its higher cytotoxicity to breast cancer cells compared with that of the corresponding ruthenium complex (Figure ).
4 Representative autoradiographs (upper panel) and densitometric analyses (lower panel) of p62 levels in MCF7 cells treated with 10 μM of HZPbdcurc and [3]-Cl for 24 h (*p < 0.01 compared with the control; #p < 0.01 compared with [3]-Cl).
Semiquantitative analysis of p62 was performed by Western blotting upon individual 24 h treatments of MCF-7 cells with 10 μM of HZPbdcurc or [Ru(p-cym)(HZPbdcurc)-Cl]-Cl. Treated cells were lysed, and 15 μg of total protein was electrophoresed on 12% SDS-PAGE, then protein bands were electroblotted onto PVDF membranes (Millipore–Milan, Italy). After incubation with anti-p62 monoclonal antibody (Merck Sigma–Milan, Italy), the bands were immunodetected on a ChemiDoc MP imaging system (Bio-Rad - Milan, Italy). […] Western blot results were analyzed using Fiji software.
(In western blotting, separated proteins are transferred to a membrane and probed.)

Data set [6] in a line: Solubility in water (qualitative). Format: physicochemical.
In data set [7] the test system is HEK293T human embryonic kidney cells. The experiment in a line: MTT cytotoxicity assay, HEK293T cells. The class given is cell-based. The settings on record: 72 h exposure, mean ± SD of three experiments. Here is the method:
as §3, §4

For data set [8], the system named is MCF7 human breast adenocarcinoma cells. The experiment in a line: MTT cytotoxicity assay, MCF7 cells. The class given is cell-based. Here is the method: as §3, §4
Data set [9] relates to A2780cis cisplatin-resistant ovarian cancer cells. The experiment in a line: MTT cytotoxicity assay, A2780cis cells. The settings on record: 72 h exposure, mean ± SD of three experiments. Format: cell-based, human. On the procedure:
as §3, §4

Data set [10] has as its target 20S proteasome chymotrypsin-like activity (Homo sapiens, UniProt P28074). The experiment in a line: Isolated 20S proteasome, chymotrypsin-like activity (Suc-Leu-Leu-Val-Tyr-AMC). Format: biochemical. The settings on record: 0–100 μM, 1 h, 37 °C, pH 8.0. Here is the method: as §1, §2
The mark [11] stands for this setting: MTT, 72 h exposure, mean ± SD of three experiments.

For the molecule `Cc1ccc(C(C)C)cc1.Oc1ccc(/C=C/c2cc(/C=C/c3ccc(O)cc3)n(-c3ccccn3)n2)cc1.[Cl-].[Cl][Ru+]` [[3]Cl, [Ru(p-cym)(HZPbdcurc)Cl]Cl], the IC50 in data set [1] was greater than 100 µM; in [2], greater than 100 µM; in data set [3] (setting [11]), 2 ± 0.1 µM; in data set [4], 31.9 ± 6 µM; in [5] it was 15.6 ± 8.9 µM; in data set [7], 19 ± 2 µM. Further, the values for the IC50 in data set [8] (setting [11]), in data set [9] and in [10] were 23 ± 6 µM, 2.7 ± 0.4 µM and greater than 100 µM, respectively. Further, the “SI A2780 HEK293T” value in data set [3] (selectivity index, values equal IC50 HEK293T / IC50 A2780) amounted to 9.50. For the same molecule, the kass with dsDNA oligomer is recorded as 10281 ± 5155 M^–1s^–1. The molecule further came in with a kdiss on dsDNA oligomer of 0.02 ± 0.01 s^–1. The molecule further had a Kd at dsDNA oligomer (equilibrium dissociation constant) of 2.2 ± 1.5 µM. The p62 levels entry in the data set on p62 was “an increase in the levels of p62 was observed”. Further, in data set [6], the solubility in water entry is listed as “partly soluble in H2O”. Also, the “SI MCF7 MCF10A” value in data set [8] (selectivity index, values equal IC50 MCF10A / IC50 MCF7) is reported as 0.68.

The term IC50 denotes the concentration at which inhibition is half-maximal. A low value points to inhibition by little substance. As a reminder, the Kd is the free concentration of one partner at which half of the binding sites on the other are occupied at equilibrium, for simple one-to-one binding. The low end stands for higher affinity, the high end for lower affinity.
